Measurements reported in patent US7414041B2 (Trustees Of Tufts College, priority 1991, dated 2008).
Read-outs that look alike come from different tables or passages of the source.

Key:
[1] = molecular target: T1, TET proteins responsible for tetracycline efflux (Class B tetracycline resistance determinant, strain D1-209) (Escherichia coli, UniProt P02980); experiment: biochemical; parameters: species or system E. coli
T1 construct: Everted vesicles, to which the TET proteins responsible for tetracycline efflux are attached; endogenous in cells; host or cells: E. coli strain D1-209 (everted membrane vesicles)

E. coli ML308 = experiment: MIC of tetracycline susceptible strains, C5 esters; type: cell-based; conditions: Escherichia coli; E. coli ML308, alone; read-out: MIC
S. aureus 450 = experiment: MIC of tetracycline susceptible strains, C5 esters; type: cell-based; conditions: Staphylococcus aureus; S. aureus 450, alone; read-out: MIC
E. faecalis ATCC 9790 = experiment: MIC of tetracycline susceptible strains, C5 esters; type: cell-based; conditions: Enterococcus faecalis, ATCC9790; E. faecalis ATCC 9790, alone; read-out: MIC
E. coli D1-299 (Tet A) = type: cell-based;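 also: E. coli at roughly 5×10^5 cells/ml in L broth, analog and doxycycline alone or mixed in two-fold dilutions from 50 to under 1 µg/ml, 18 h at 37 °C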
E. faecalis 211 (Tet M) = experiment: MIC/MLC chart, analog with and without doxycycline; type: cell-based;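 also: broth checkerboard of two-fold drug dilutions, alone and mixed with doxycycline, bacteria near 5×10^5 cells/ml, 18 h incubation at 37 °C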
[2] = analog .195 μg/ml + doxycycline 1.56 μg/ml
[3] = analog .195 μg/ml + doxycycline 3.12 μg/ml
[4] = analog .195 μg/ml + doxycycline 6.25 μg/ml
[5] = analog .39 μg/ml + doxycycline 1.56 μg/ml
[6] = analog .39 μg/ml + doxycycline 3.12 μg/ml
[7] = analog alone .195 μg/ml (Analog Control)
[8] = analog alone .39 μg/ml (Analog Control)

T1 sequence (P02980 whole entry): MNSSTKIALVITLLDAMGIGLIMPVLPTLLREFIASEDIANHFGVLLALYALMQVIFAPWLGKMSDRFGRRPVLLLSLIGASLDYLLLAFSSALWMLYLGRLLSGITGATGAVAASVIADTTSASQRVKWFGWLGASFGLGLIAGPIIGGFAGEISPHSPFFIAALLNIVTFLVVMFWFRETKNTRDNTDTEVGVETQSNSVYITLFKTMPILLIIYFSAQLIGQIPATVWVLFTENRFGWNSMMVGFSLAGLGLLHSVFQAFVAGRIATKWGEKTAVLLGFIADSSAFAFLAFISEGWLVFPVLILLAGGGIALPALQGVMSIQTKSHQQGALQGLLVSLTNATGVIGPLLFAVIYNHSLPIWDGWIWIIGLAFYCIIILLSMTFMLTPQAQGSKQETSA

CCC(=O)OC1C2C(=C(O)C3(O)C(=O)C(C(N)=O)=C(O)C(N(C)C)C13)C(=O)c1c(O)cccc1C2CSC1CCCC1 (stereo not shown) [Cmpd 5, 13-cyclopentylthio-5-proprionate-6-deoxy tetracycline]
IC50 [1]: 3.3 µM | MIC (E. coli ML308): 20 µg/mL | MIC (S. aureus 450): 0.4 µg/mL | MIC (E. faecalis ATCC 9790): 0.4 µg/mL | MIC/MLC chart: growth or killing (E. coli D1-299 (Tet A); analog 1.56 μg/ml + doxycycline 1.55 μg/ml): + | MIC/MLC chart: growth or killing (E. coli D1-299 (Tet A); analog 1.56 μg/ml + doxycycline 3.1 μg/ml): + | MIC/MLC chart: growth or killing (E. coli D1-299 (Tet A); analog 1.56 μg/ml + doxycycline 6.2 μg/ml): + | MIC/MLC chart: growth or killing (E. coli D1-299 (Tet A); analog 3.12 μg/ml + doxycycline 1.53 μg/ml): + | MIC/MLC chart: growth or killing (E. coli D1-299 (Tet A); analog 3.12 μg/ml + doxycycline 3.05 μg/ml): + | MIC/MLC chart: growth or killing (E. coli D1-299 (Tet A); analog 3.12 μg/ml + doxycycline 6.1 μg/ml): + | MIC/MLC chart: growth or killing (E. coli D1-299 (Tet A); analog 6.25 μg/ml + doxycycline 3.0 μg/ml): + | MIC/MLC chart: growth or killing (E. coli D1-299 (Tet A); analog 6.25 μg/ml + doxycycline […]): + | MIC/MLC chart: growth or killing (E. coli D1-299 (Tet A); analog 12.5 μg/ml + doxycycline 2.8 μg/ml): + | MIC/MLC chart: growth or killing (E. coli D1-299 (Tet A); analog 12.5 μg/ml + doxycycline […]): + | MIC/MLC chart: growth or killing (E. coli D1-299 (Tet A); analog 25 μg/ml + doxycycline 2.4 μg/ml): + | MIC/MLC chart: growth or killing (E. coli D1-299 (Tet A); analog 25 μg/ml + doxycycline […]): + | MIC/MLC chart: growth or killing (E. coli D1-299 (Tet A); analog 50 μg/ml + doxycycline 1.56 μg/ml): + | MIC/MLC chart: growth or killing (E. coli D1-299 (Tet A); analog 50 μg/ml + doxycycline .78 μg/ml): + | MIC/MLC chart: growth or killing (E. coli D1-299 (Tet A); [2]): + | MIC/MLC chart: growth or killing (E. coli D1-299 (Tet A); [3]): + | MIC/MLC chart: growth or killing (E. coli D1-299 (Tet A); [4]): + | MIC/MLC chart: growth or killing (E. coli D1-299 (Tet A); analog .195 μg/ml + doxycycline 12.5 μg/ml): + | MIC/MLC chart: growth or killing (E. coli D1-299 (Tet A); analog .195 μg/ml + doxycycline 25.0 μg/ml): + | MIC/MLC chart: growth or killing (E. coli D1-299 (Tet A); [5]): + | MIC/MLC chart: growth or killing (E. coli D1-299 (Tet A); [6]): + | MIC/MLC chart: growth or killing (E. coli D1-299 (Tet A); analog .39 μg/ml + doxycycline 6.25 μg/ml): + | MIC/MLC chart: growth or killing (E. coli D1-299 (Tet A); analog .39 μg/ml + doxycycline 12.5 μg/ml): + | MIC/MLC chart: growth or killing (E. coli D1-299 (Tet A); analog .39 μg/ml + doxycycline 24.9 μg/ml): ↓ | MIC/MLC chart: growth or killing (E. coli D1-299 (Tet A); analog .78 μg/ml + doxycycline 1.56 μg/ml): + | MIC/MLC chart: growth or killing (E. coli D1-299 (Tet A); analog .78 μg/ml + doxycycline 3.12 μg/ml): + | MIC/MLC chart: growth or killing (E. coli D1-299 (Tet A); analog .78 μg/ml + doxycycline 6.23 μg/ml): + | MIC/MLC chart: growth or killing (E. coli D1-299 (Tet A); analog .78 μg/ml + doxycycline 12.4 μg/ml): ◯ | MIC/MLC chart: growth or killing (E. coli D1-299 (Tet A); analog alone 1.56 μg/ml (Analog Control)): + | MIC/MLC chart: growth or killing (E. coli D1-299 (Tet A); analog alone 3.12 μg/ml (Analog Control)): + | MIC/MLC chart: growth or killing (E. coli D1-299 (Tet A); analog alone 6.25 μg/ml (Analog Control)): + | MIC/MLC chart: growth or killing (E. coli D1-299 (Tet A); analog alone 12.5 μg/ml (Analog Control)): + | MIC/MLC chart: growth or killing (E. coli D1-299 (Tet A); analog alone 25.0 μg/ml (Analog Control)): + | MIC/MLC chart: growth or killing (E. coli D1-299 (Tet A); analog alone 50.00 μg/ml (Analog Control)): + | MIC/MLC chart: growth or killing (E. coli D1-299 (Tet A); [7]): + | MIC/MLC chart: growth or killing (E. coli D1-299 (Tet A); [8]): + | MIC/MLC chart: growth or killing (E. coli D1-299 (Tet A); analog alone .78 μg/ml (Analog Control)): + | MLC in combination (E. coli D1-299 (Tet A); with 5.9 μg/ml doxycycline (Chart 8A)): 6.25 µg/mL | MIC/MLC chart: growth or killing (E. faecalis 211 (Tet M); [2]): + | MIC/MLC chart: growth or killing (E. faecalis 211 (Tet M); [3]): + | MIC/MLC chart: growth or killing (E. faecalis 211 (Tet M); [4]): + | MIC/MLC chart: growth or killing (E. faecalis 211 (Tet M); [5]): ◯ | MIC/MLC chart: growth or killing (E. faecalis 211 (Tet M); [6]): ◯ | MIC/MLC chart: growth or killing (E. faecalis 211 (Tet M); [7]): + | MIC/MLC chart: growth or killing (E. faecalis 211 (Tet M); [8]): ◯
